Assay results as given in article PMC6670186, “Novel prodrugs of decitabine with greater metabolic stability and less toxicity” (Clinical Epigenetics, 2019).
Marks after values point to notes of the source that are not given here.

Tests used:
Cytidine deaminase (CDA) = system: Cytidine deaminase (CDA); design: method as in J. Clinical Investigation, 1974, 53(3), 922-931; settings: substrate of CDA; ref J. Clinical Investigation, 1974, 53(3), 922-931; cited from earlier work
[1] = Partition coefficient (log P), shake-flask method, n-octanol/PBS; type: physicochemical
Protocol: The method employed HPLC with the following conditions: ZORBAX Bonus C18 column (4.6 × 150 mm, 3 μm); eluent: A = 10 mM HCO2NH4, B = acetonitrile, A:B = 50:50 (an isocratic mode for 5 min), and A:B = 99:1–20:80 (a gradient mode for 15 min); flow rate = 1.0 mL/min; oven temperature = 40 °C; detection = 240 nm.

[2] = Stability in phosphate-buffered saline; type: physicochemical; settings: for t1/2 in PBS: PBS solution at 37°C; for Stability t1/2 in PBS: PBS 37 °C, 20** + x h, 20 h = t1/2 in PBS of DAC, x = OR compound
Protocol: Five microliters of DAC derivatives (1.0 mg/100 μL of DMSO) was added to 200 μL of a stirred PBS solution at 37 °C. The mixture was stirred continuously for 1 day. The remaining of the starting derivatives was assayed using the HPLC analytical conditions as described above.

[3] = target: T1, human recombinant cytidine deaminase (Homo sapiens, UniProt P32320); assay: Stability in the presence of cytidine deaminase; type: in vitro ADME; settings: for Enzymatic stability, retained: cytidine deaminase, after 2 h
T1 construct: His; purchased AT Gen Co. Ltd; Seoul, Korea
Text: The remaining of the starting derivatives were continuously assayed using HPLC analytical conditions as described above.

[4] = Chemical stability in a protic solvent; type: physicochemical
[5] = Pharmacokinetics in mice, intraperitoneal; type: in vivo; settings: for AUC 0 → lim, DAC / AUC 0 → lim, Total / AUC 0 → lim, OR compound: plasma; for AUC 0 → lim, DAC: DAC (metabolite for OR compounds), equimolar dose; for AUC 0 → lim, Total: OR compound + metabolite DAC; for AUC 0 → lim, OR compound: dose equimolar to 0.20 mg/kg DAC
Protocol: Six-week-old female ICR mice were intraperitoneally injected with 0.20 mg/kg of DAC, 0.29 mg/kg of OR-2003, 0.32 mg/kg of OR-2009, 0.30 mg/kg of OR-2100, and 0.31 mg/kg of OR-2102. The doses were decided so that equivalent amounts of molar concentration would be administered. The blood plasma was collected before and at 5, 15, 30, 45, 60, 90, and 120 min after the treatment. All experimental procedures were approved by the Committee of National Cancer Center.

[6] = system: exogenous UCHL1 promoter and OSR2 promoter CpG island; assay: Quantitative methylation-specific PCR of marker genes; type: cell-based, Human; settings: qMSP
Protocol: One microgram of EcoRV-digested genomic DNA was treated with sodium bisulfite as described previously. Bisulfite-treated DNA was resuspended in 40 μL of TE-buffer (10 mM Tris, pH 8.0; 1 mM EDTA, pH 8.0), and 1 μL was used for quantitative methylation-specific PCR (qMSP) using primers specific to methylated and unmethylated target loci, including MetLuc-UCHL1 promoter, OSR2 promoter, and UCHL1 promoter (Additional file 1: Table S1). As a fully unmethylated DNA control, genomic DNA from peripheral blood cells of a healthy person was amplified twice using a GenomiPhi DNA amplification kit (GE Healthcare Life Sciences; Little Chalfont, UK). As a fully methylated DNA control, the fully unmethylated DNA was methylated by SssI methylase (New England Biolabs; Beverly, MA).

T1 sequence (P32320 whole entry): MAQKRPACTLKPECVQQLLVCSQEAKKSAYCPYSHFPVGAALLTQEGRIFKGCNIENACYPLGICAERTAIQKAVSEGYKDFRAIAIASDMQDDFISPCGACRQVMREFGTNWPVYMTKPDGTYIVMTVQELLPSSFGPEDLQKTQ

| SMILES | Log PO/PBS [1] | t1/2 in PBS [2] | other results |
| --- | --- | --- | --- |
| Nc1ccn([C@H]2C[C@H](O)[C@@H](CO)O2)c(=O)n1 [2'-deoxycytidine] |  |  | Michaelis constant (Cytidine deaminase (CDA)): 26 µM |
| Nc1nc(=O)n([C@@H]2O[C@H](CO)[C@@H](O)[C@H]2O)cc1F [5-fluorocytidine] |  |  | Michaelis constant (Cytidine deaminase (CDA)): 30 µM |
| Nc1ncn([C@@H]2O[C@H](CO)[C@@H](O)[C@H]2O)c(=O)n1 [AZA, 5-azacytidine] |  |  | Michaelis constant (Cytidine deaminase (CDA)): 430 µM |
| Nc1ncn([C@H]2C[C@H](O)[C@@H](CO[Si](Cc3ccccc3)(Cc3ccccc3)Cc3ccccc3)O2)c(=O)n1 [Benzyl, Benzyl, Benzyl] | 4.69 | > 24 h |  |
| CC[Si](C)(CC)OC[C@H]1O[C@@H](n2cnc(N)nc2=O)C[C@@H]1O [Ethyl, Ethyl, Methyl] | 1.49 | 4 h | enzymatic stability in the presence of CDA [3]: stable in the presence of CDA |
| CC[Si](CC)(OCC1OC(n2cnc(N)nc2=O)CC1O)C1CCCC1 (stereo not drawn) [Ethyl, Ethyl, c-Pentyl] | 3.10 | > 24 h |  |
| CC[Si](CC)(OC[C@H]1O[C@@H](n2cnc(N)nc2=O)C[C@@H]1O)C(C)C [Ethyl, Ethyl, i-Propyl] | 2.56 | > 24 h |  |
| C[Si](C)(Cc1ccccc1)OC[C@H]1O[C@@H](n2cnc(N)nc2=O)C[C@@H]1O [Methyl, Methyl, Benzyl] | 1.73 | 2.5 h | enzymatic stability in the presence of CDA [3]: gradually degraded by CDA |
| CC[Si](C)(C)OC[C@H]1O[C@@H](n2cnc(N)nc2=O)C[C@@H]1O [Methyl, Methyl, Ethyl] |  | 0.9 h |  |
| Nc1ncn([C@H]2C[C@H](OP(=O)(O)OC[C@H]3O[C@@H](n4cnc5c(=O)[nH]c(N)nc54)C[C@@H]3O)[C@@H](CO)O2)c(=O)n1 [guadecitabine, reference compound] |  |  | dose with strongest effect of DNA demethylation [6]: 1.0 µM; DNA demethylation of exogenous UCHL1 promoter and OSR2 promoter CpG island ([6]; 0.0 to 10.0 μM): weaker demethylation effect than OR-2003 and OR-2100 |

Now from value to molecule, other results behind:

| Log PO/PBS [1] | t1/2 in PBS [2] | SMILES | other results |
| --- | --- | --- | --- |
|  | Unstable | C[Si](C)(C)OC[C@H]1O[C@@H](n2cnc(N)nc2=O)C[C@@H]1O [Methyl, Methyl, Methyl] | stability in a protic solvent [4]: unstable |
| 2.16 | 15 h | C[Si](C)(OCC1OC(n2cnc(N)nc2=O)CC1O)C1CCCC1 (stereo not drawn) [Methyl, Methyl, c-Pentyl] |  |
| 1.48 | 12 h | CC(C)[Si](C)(C)OC[C@H]1O[C@@H](n2cnc(N)nc2=O)C[C@@H]1O [Methyl, Methyl, i-Propyl] | enzymatic stability in the presence of CDA [3]: stable in the presence of CDA |
| 4.56 | 1.3 h | CCCC[Si](C)(C)OC[C@H]1O[C@@H](n2cnc(N)nc2=O)C[C@@H]1O [Methyl, Methyl, n-Butyl] |  |
|  | 1.5 h | CCCCCCCC[Si](C)(C)OCC1OC(n2cnc(N)nc2=O)CC1O (stereo not drawn) [Methyl, Methyl, n-Octyl] |  |
| 1.91 | > 24 h | CC(C)(C)[Si](C)(C)OC[C@H]1O[C@@H](n2cnc(N)nc2=O)C[C@@H]1O [Methyl, Methyl, t-Butyl] | stability in a protic solvent [4]: stable |
| 2.52 | 14 h | C[Si](C)(OC[C@H]1O[C@@H](n2cnc(N)nc2=O)C[C@@H]1O)C1CCCCC1 [OR-2009] | total AUC of OR compound and metabolite DAC compared with DAC [5]: larger AUCs than that of DAC; AUC 0 → lim, DAC [5]: 0.238 µM·h; AUC 0 → lim, Total [5]: 0.552 µM·h; AUC 0 → lim, OR compound [5]: 0.314 µM·h; half-life (time to release DAC) [2]: ≥ 14 h; Stability t1/2 in PBS [2]: 20** + 14 h; Enzymatic stability, retained [3]: Retain 75% after 2 h |
| 2.54 | 19 h | CCC[Si](CC)(CC)OC[C@H]1O[C@@H](n2cnc(N)nc2=O)C[C@@H]1O [OR-2102] | AUC 0 → lim, DAC [5]: 0.285 µM·h; AUC 0 → lim, Total [5]: 0.366 µM·h; AUC 0 → lim, OR compound [5]: 0.081 µM·h; half-life (time to release DAC) [2]: ≥ 14 h; Stability t1/2 in PBS [2]: 20** + 19 h; enzymatic stability in the presence of CDA [3]: gradually degraded by CDA; Enzymatic stability, retained [3]: Retain 46% after 2 h |
| 5.20 | 22 h | CCC[Si](CCC)(CCC)OC[C@H]1O[C@@H](n2cnc(N)nc2=O)C[C@@H]1O [n-Propyl, n-Propyl, n-Propyl] |  |
